Source: patent US20070128217A1 (priority 2003, published 2007)

Assays:
[1] = test system: antibodies in sera from SARS patients (sera 1a, 1b, 2, 6, 37, 62, London, SARS-yellow, SARS-green); type: binding, human; design: Binding of serum 6 to linear peptides of protein X1 of SARS-CoV Urbani / Binding of serum 37 to linear peptides of protein X1 of SARS-CoV Urbani / Binding of serum 6 to looped/cyclic peptide (PEPSCAN-ELISA) / Binding of serum 37 to looped/cyclic peptide (PEPSCAN-ELISA) / Binding of serum 37 to looped/cyclic peptides of protein X1 of SARS-CoV Urbani / Binding of serum 6 to linear peptides of protein X2 / Binding of serum 37 to linear peptides of protein X2 / Binding of serum 37 to looped/cyclic peptides of protein X2 of SARS-CoV Urbani / Binding of serum 6 to linear peptides of protein M of SARS-CoV Urbani / Binding of serum 37 to linear peptides of protein M of SARS-CoV Urbani / Binding of serum 6 to looped/cyclic peptides of protein M of SARS-CoV Urbani / Binding of serum 37 to looped/cyclic peptides of protein M of SARS-CoV Urbani / Binding of serum 6 to linear peptides of protein X3 of SARS-CoV Urbani / Binding of serum 37 to linear peptides of protein X3 of SARS-CoV Urbani / Binding of serum 37 to looped/cyclic peptides of protein X3 of SARS-CoV Urbani / Binding of serum 6 to linear peptides of protein X4 of SARS-CoV Urbani / Binding of serum 37 to linear peptides of protein X4 of SARS-CoV Urbani / Binding of serum 37 to looped/cyclic peptides of protein X4 of SARS-CoV Urbani / Binding of serum 6 to linear peptides of protein X5 of SARS-CoV Urbani / Binding of serum 37 to linear peptides of protein X5 of SARS-CoV Urbani / Binding of serum 37 to looped/cyclic peptides of protein X5 of SARS-CoV Urbani / Binding of serum 6 to linear peptides of protein N of SARS-CoV Urbani / Binding of serum 37 to linear peptides of protein N of SARS-CoV Urbani / Binding of serum 6 to linear peptide (PEPSCAN-ELISA) / Binding of serum 1a to looped/cyclic peptides of protein N of SARS-CoV Urbani / Binding of serum 1b to looped/cyclic peptides of protein N of SARS-CoV Urbani / Binding of serum 2 to looped/cyclic peptides of protein N of SARS-CoV Urbani / Binding of serum 6 to looped/cyclic peptides of protein N of SARS-CoV Urbani / Binding of serum 37 to looped/cyclic peptides of protein N of SARS-CoV Urbani / Binding of serum 62 to looped/cyclic peptides of protein N of SARS-CoV Urbani / Binding of serum London to looped/cyclic peptides of protein N of SARS-CoV Urbani / Binding of serum SARS-green to looped/cyclic peptides of protein N of SARS-CoV Urbani: unit not given here
[2] = test system: control sera (pooled serum of ten healthy LUMC hospital workers; commercial negative donor pooled serum from the Dutch bloodbank); type: binding, human; design: Binding of Control serum LUMC to linear peptides / Binding of Control serum Blood-bank to linear peptides / Binding of Control serum LUMC to looped peptides / Binding of Control Serum Blood-Bank to Looped peptides / Binding of Control serum LUMC to linear peptides of the protein M of SARS-CoV Urbani / Binding of Control serum Blood-bank to linear peptides of the protein M of SARS-CoV Urbani / Binding of Control serum LUMC to looped peptides of the protein M of SARS-CoV Urbani / Binding of Control Serum Blood-Bank to Looped peptides of the protein M of SARS-CoV Urbani: unit not given here
[3] = test system: rabbit serum obtained by immunizing a rabbit with the SARS-CoV strain Frankfurt 1; type: binding; design: Binding of a rabbit serum to linear peptides / Binding of a rabbit serum to looped peptides / Rabbit serum linear peptides / Rabbit serum looped peptides / Binding of a rabbit serum to linear peptides of protein N of SARS-CoV Urbani (Rabbit serum linear peptides) / Binding of a rabbit serum to looped/cyclic peptides of protein N of SARS-CoV Urbani (Rabbit serum looped peptides): unit not given here

## RIAIWNLDVIISSIV
[1]
  Binding of serum 1a to linear peptides of protein X3 of SARS-CoV Urbani: 0.7
  Binding of serum 1a to looped/cyclic peptides of protein X3 of SARS-CoV Urbani: 0.8
  Binding of serum 1b to linear peptides of protein X3 of SARS-CoV Urbani: 0.3
  Binding of serum 1b to looped/cyclic peptides of protein X3 of SARS-CoV Urbani: 0.5
  Binding of serum 2 to linear peptides of protein X3 of SARS-CoV Urbani: 0.6
  Binding of serum 2 to looped/cyclic peptides of protein X3 of SARS-CoV Urbani: 0.8
  Binding of serum 6 to linear peptides of protein X3 of SARS-CoV Urbani: 0.5
  Binding of serum 6 to looped/cyclic peptides of protein X3 of SARS-CoV Urbani: 0.4
  Binding of serum 37 to linear peptides of protein X3 of SARS-CoV Urbani: 0.5
  Binding of serum 37 to looped/cyclic peptides of protein X3 of SARS-CoV Urbani: 0.6
  Binding of serum 62 to linear peptides of protein X3 of SARS-CoV Urbani: 0.7
  Binding of serum 62 to looped/cyclic peptides of protein X3 of SARS-CoV Urbani: 0.7
  Binding of serum London to linear peptides of protein X3 of SARS-CoV Urbani: 0.7
  Binding of serum London to looped/cyclic peptides of protein X3 of SARS-CoV Urbani: 0.2
  Binding of serum SARS-green to linear peptides of protein X3 of SARS-CoV Urbani: 0.3
  Binding of serum SARS-green to looped/cyclic peptides of protein X3 of SARS-CoV Urbani: 0.3
  Binding of serum SARS-yellow to linear peptides of protein X3 of SARS-CoV Urbani: 0.4
  Binding of serum SARS-yellow to looped/cyclic peptides of protein X3 of SARS-CoV Urbani: 1.0
[2]
  Binding of Control Serum Blood-Bank to Looped peptides of the protein X3 of SARS-CoV Urbani: 0.9
  Binding of Control serum Blood-bank to linear peptides of the protein X3 of SARS-CoV Urbani: 0.7
  Binding of Control serum LUMC to linear peptides of the protein X3 of SARS-CoV Urbani: 0.6
  Binding of Control serum LUMC to looped peptides of the protein X3 of SARS-CoV Urbani: 0.8
[3]
  Rabbit serum linear peptides: 0.3
  Rabbit serum looped peptides: 0.4

## RIGNYKLNTDHAGSN
[1]
  Binding of serum 1a to linear peptides of protein M of SARS-CoV Urbani: 0.7
  Binding of serum 1a to looped/cyclic peptides of protein M of SARS-CoV Urbani: 0.6
  Binding of serum 1b to linear peptides of protein M of SARS-CoV Urbani: 0.5
  Binding of serum 1b to looped/cyclic peptides of protein M of SARS-CoV Urbani: 0.5
  Binding of serum 2 to linear peptides of protein M of SARS-CoV Urbani: 0.6
  Binding of serum 2 to looped/cyclic peptides of protein M of SARS-CoV Urbani: 0.5
  Binding of serum 6 to linear peptides of protein M of SARS-CoV Urbani: 0.3
  Binding of serum 6 to looped/cyclic peptides of protein M of SARS-CoV Urbani: 0.7
  Binding of serum 37 to linear peptides of protein M of SARS-CoV Urbani: 0.5
  Binding of serum 37 to looped/cyclic peptides of protein M of SARS-CoV Urbani: 0.6
  Binding of serum 62 to linear peptides of protein M of SARS-CoV Urbani: 0.6
  Binding of serum 62 to looped/cyclic peptides of protein M of SARS-CoV Urbani: 0.6
  Binding of serum London to linear peptides of protein M of SARS-CoV Urbani: 0.6
  Binding of serum London to looped/cyclic peptides of protein M of SARS-CoV Urbani: 0.4
  Binding of serum SARS-green to linear peptides of protein M of SARS-CoV Urbani: 0.6
  Binding of serum SARS-green to looped/cyclic peptides of protein M of SARS-CoV Urbani: 0.2
  Binding of serum SARS-yellow to linear peptides of protein M of SARS-CoV Urbani: 0.1
  Binding of serum SARS-yellow to looped/cyclic peptides of protein M of SARS-CoV Urbani: 0.6
[2]
  Binding of Control Serum Blood-Bank to Looped peptides of the protein M of SARS-CoV Urbani: 0.8
  Binding of Control serum Blood-bank to linear peptides of the protein M of SARS-CoV Urbani: 0.9
  Binding of Control serum LUMC to linear peptides of the protein M of SARS-CoV Urbani: 0.6
  Binding of Control serum LUMC to looped peptides of the protein M of SARS-CoV Urbani: 0.8
[3]
  Rabbit serum linear peptides: 0.1
  Rabbit serum looped peptides: 0.2

## RLLACLCKHKKVSTN
[1]
  Binding of serum 1a to looped/cyclic peptides of protein X2 of SARS-CoV Urbani: 0.3
  Binding of serum 1b to looped/cyclic peptides of protein X2 of SARS-CoV Urbani: 0.2
  Binding of serum 2 to looped/cyclic peptides of protein X2 of SARS-CoV Urbani: 0.3
  Binding of serum 6 to looped/cyclic peptides of protein X2 of SARS-CoV Urbani: 0.3
  Binding of serum 37 to looped/cyclic peptides of protein X2 of SARS-CoV Urbani: 0.3
  Binding of serum 62 to looped/cyclic peptides of protein X2 of SARS-CoV Urbani: 0.5
  Binding of serum London to looped/cyclic peptides of protein X2 of SARS-CoV Urbani: 0.2
  Binding of serum SARS-green to looped/cyclic peptides of protein X2 of SARS-CoV Urbani: 0.3
  Binding of serum SARS-yellow to looped/cyclic peptides of protein X2 of SARS-CoV Urbani: 0.4
  Recognition of the peptide by sera of SARS-CoV infected individuals, and form (linear, looped/cyclic) in which it is recognized: recognized in linear form
[2]
  Binding of Control Serum Blood-Bank to Looped peptides: 0.3
  Binding of Control serum Blood-bank to linear peptides: 0.9
  Binding of Control serum LUMC to linear peptides: 0.7
  Binding of Control serum LUMC to looped peptides: 0.4
[3]
  Binding of a rabbit serum to linear peptides: 0.3
  Binding of a rabbit serum to looped peptides: 0.4
